Entries after “also recorded” stand apart in the source; their conditions may differ.
Key:
FMRI knockout mice = assay: audiogenic seizure test in FMRI knockout mice (Example 2); assay type: in vivo
Protocol: Male FMRI knockout mice were bred at PsychoGenies and tested at 21 days old. All mice were acclimated to the environment, examined, handled, and weighed prior to initiation of the study to assure adequate health and suitability and to minimize non-specific stress associated with manipulation. During the course of the study, 12/12 light/dark cycles were maintained. The room temperature was maintained between 20 and 23° C. with a relative humidity maintained around 50%. Chow and water were provided ad libitum for the duration of the study. Each mouse was randomly assigned across treatment groups. The testing was performed during the animals' light cycle phase
The following compounds were used.
Mice were individually placed in a Plexiglas chamber and allowed to explore for 15 sec following which they were exposed to a 125 dB tone for 2 minutes, followed by 1 minute of no sound, and then a further 2 minute tone. The mice were scored based on their response, latency, and seizure intensity:
Data were analyzed by analysis of variance (ANOVA) followed by post-hoc comparisons with Fisher Tests when appropriate. An effect was considered significant if p<0.05. Data are presented as the mean±standard error of the mean.

fmr1 knockout mice = assay: audiogenic seizures in the fmr1 knockout transgenic mouse model of Fragile X syndrome (Example 1); assay type: in vivo
Protocol: Male fmr1 knockout mice were bred and tested at 21 days old. All mice were acclimated to the environment, examined, handled, and weighed prior to initiation of the study to assure adequate health and suitability and to minimize non-specific stress associated with manipulation. During the course of the study, 12/12 light/dark cycles were maintained. The room temperature was maintained between 20 and 23° C. with a relative humidity maintained around 50%. Chow and water were provided ad libitum for the duration of the study. Each mouse was randomly assigned across treatment groups. The testing was performed during the animals' light cycle phase. SL327 (Sigma Aldrich, 400 mg/kg) was dissolved in 5% Tween80 and saline and administered i.p. at a dose volume of 10 ml/kg 30 min prior to test. Mice were individually placed in a Plexiglas chamber and allowed to explore for 15 sec following which they were exposed to a 125 dB tone for 2 minutes, followed by 1 minute of no sound, and then a further 2 minute tone. The mice were scored based on their response, latency, and seizure intensity: […]

[1] = perillyl alcohol 25 mg/kg i.p., 60 min prior to testing
[2] = perillyl alcohol 50 mg/kg i.p., 60 min prior to testing
[3] = MPEP 30 mg/kg i.p., 30 min prior to testing

SMILES: C=C(C)[C@@H]1CC=C(CO)CC1 [perillyl alcohol, [(4S)-4-(prop-1-en-2-yl)cyclohex-1-en-1-yl]methanol]
- latency to onset of seizure compared to respective vehicle (FMRI knockout mice; [1]): significantly delayed the onset; also recorded: increased the latency to seizure
- latency to respiratory arrest compared to respective vehicle (FMRI knockout mice; [1]): significantly delayed the onset; also recorded: significantly prolonged the latency to respiratory arrest
- mean seizure score compared to vehicle (FMRI knockout mice; [1]): attenuated overall seizure score; also recorded: significantly decreased seizure score
- latency to onset of seizure compared to respective vehicle (FMRI knockout mice; [2]): significantly delayed the onset; also recorded: increased the latency to seizure
- latency to respiratory arrest compared to respective vehicle (FMRI knockout mice; [2]): significantly delayed the onset; also recorded: significantly prolonged the latency to respiratory arrest
- mean seizure score compared to vehicle (FMRI knockout mice; [2]): attenuated overall seizure score; also recorded: significantly decreased seizure score

SMILES: Cc1cccc(C#Cc2ccccc2)n1.Cl [MPEP]
- respiratory distress during testing (FMRI knockout mice; MPEP 30 mg/kg i.p.): no respiratory distress
- latency to onset of seizure compared to respective vehicle (FMRI knockout mice; [3]): significantly delayed the onset; also recorded: increased the latency to seizure
- latency to respiratory arrest compared to respective vehicle (FMRI knockout mice; [3]): significantly delayed the onset; also recorded: significantly prolonged the latency to respiratory arrest
- mean seizure score compared to vehicle (FMRI knockout mice; [3]): attenuated overall seizure score; also recorded: significantly decreased seizure score
- latency to respiratory arrest (FMRI knockout mice; MPEP 30 mg/kg i.p., 240 sec given to animals with no response): 240 s
- clinical signs or toxicity during pretreatment or testing (FMRI knockout mice; i.p., MPEP HCI 30 mg/kg, perillyl alcohol 25 and 50 mg/kg): No clinical signs or toxicity were observed

SMILES: N#C/C(=C(/N)Sc1ccc(N)cc1)c1ccccc1C(F)(F)F [SL327, (2Z)-3-amino-3-[(4-aminophenyl)sulfanyl]-2-[2-(trifluoromethyl)phenyl]prop-2-enenitrile]
- mean seizure score compared to vehicle (fmr1 knockout mice; SL327 400 mg/kg i.p.): significantly lower seizure score
- survival (fmr1 knockout mice; SL327 400 mg/kg i.p.): All mice receiving SL327 survived
- survival rate following testing (fmr1 knockout mice; SL327 400 mg/kg i.p.): 100%
- audiogenic seizure activity (fmr1 knockout mice; SL327 400 mg/kg i.p. 30 min prior to test, male fmr1 knockout mice, 21 days old, vs Tween80 vehicle, 400 mg/kg): absence of any audiogenic seizure activity; also recorded: completely inhibits all seizure activity; also recorded: seizure activity was completely prevented
- latency to seizure onset (fmr1 knockout mice; SL327 400 mg/kg i.p., 240 sec = maximum total time of audiogenic stimulation, given to animals with no response): > 240 s
- seizure score (fmr1 knockout mice; SL327 400 mg/kg i.p., scale 0 (no response) to 5 (respiratory arrest)): 0

— patent US20150141380A1, “INHIBITORS OF ERK FOR DEVELOPMENTAL DISORDERS OF NEURONAL CONNECTIVITY” (CASE WESTERN RESERVE UNIVERSITY, priority 2010, published 2015)
